In brackets after ≈: the same amount, converted by molar mass.
Assays:
Format in all cases: functional
Enterococcus [1] = experiment: Antibacterial activity against vancomycin-resistant Enterococcus 1 after 18 to 20 hrs by agar dilution method
Enterococcus [2] = experiment: Antibacterial activity against vancomycin-resistant Enterococcus 2 after 18 to 20 hrs by agar dilution method
Enterococcus [3] = experiment: Antibacterial activity against vancomycin-resistant Enterococcus 3 after 18 to 20 hrs by agar dilution method
Enterococcus [4] = experiment: Antibacterial activity against vancomycin-resistant Enterococcus 4 after 18 to 20 hrs by agar dilution method
Enterococcus [5] = experiment: Antibacterial activity against vancomycin-resistant Enterococcus 5 after 18 to 20 hrs by agar dilution method
Enterococcus [6] = experiment: Antibacterial activity against vancomycin-resistant Enterococcus 6 after 18 to 20 hrs by agar dilution method
Staphylococcus aureus [7] = experiment: Antibacterial activity against Staphylococcus aureus C463 after 18 to 20 hrs by agar dilution method
Staphylococcus = experiment: Antibacterial activity against coagulase negative Staphylococcus after 18 to 20 hrs by agar dilution method
Enterococcus faecalis = experiment: Antibacterial activity against Enterococcus faecalis C474 after 18 to 20 hrs by agar dilution method
Enterococcus faecium [8] = experiment: Antibacterial activity against Enterococcus faecium C803 after 18 to 20 hrs by agar dilution method
Streptococcus pneumoniae = experiment: Antibacterial activity against Streptococcus pneumoniae C402 after 18 to 20 hrs by agar dilution method
Streptococcus pyogenes = experiment: Antibacterial activity against Streptococcus pyogenes ATCC 8736 after 18 to 20 hrs by agar dilution method
Streptococcus agalactiae = experiment: Antibacterial activity against Streptococcus agalactiae ATCC 2901 after 18 to 20 hrs by agar dilution method
Haemophilus influenzae = experiment: Antibacterial activity against Haemophilus influenzae after 18 to 20 hrs by agar dilution method
Staphylococcus aureus [9] = experiment: Antibacterial activity against methicillin-resistant Staphylococcus aureus 1 after 18 to 20 hrs by agar dilution method
Enterococcus faecium [10] = experiment: Antibacterial activity against vancomycin-resistant Enterococcus faecium 1 after 18 to 20 hrs by agar dilution method
Enterococcus faecium [11] = experiment: Antibacterial activity against vancomycin-resistant Enterococcus faecium 2 after 18 to 20 hrs by agar dilution method

Compound: CC(=O)NC[C@H]1CN(c2ccc(N3CCN(Cc4ccccc4)S3(=O)=O)c(F)c2)C(=O)O1
- MIC (Enterococcus [1]): 6.25 µg/mL (≈ 13.5 µM)
- MIC (Enterococcus [2]): 6.25 µg/mL (≈ 13.5 µM)
- MIC (Enterococcus [3]): 1.56 µg/mL (≈ 3.37 µM)
- MIC (Enterococcus [4]): 6.25 µg/mL (≈ 13.5 µM)
- MIC (Enterococcus [5]): 6.25 µg/mL (≈ 13.5 µM)
- MIC (Enterococcus [6]): 6.25 µg/mL (≈ 13.5 µM)
- MIC (Staphylococcus aureus [7]): 6.25 µg/mL (≈ 13.5 µM)
- MIC (Staphylococcus): 6.25 µg/mL (≈ 13.5 µM)
- MIC (Enterococcus faecalis): 6.25 µg/mL (≈ 13.5 µM)
- MIC (Enterococcus faecium [8]): 6.25 µg/mL (≈ 13.5 µM)
- MIC (Streptococcus pneumoniae): 6.25 µg/mL (≈ 13.5 µM)
- MIC (Streptococcus pyogenes): 6.25 µg/mL (≈ 13.5 µM)
- MIC (Streptococcus agalactiae): 6.25 µg/mL (≈ 13.5 µM)
- MIC (Haemophilus influenzae): 3.12 µg/mL (≈ 6.75 µM)
- MIC (Staphylococcus aureus [9]): 6.25 µg/mL (≈ 13.5 µM)
- MIC (Enterococcus faecium [10]): 6.25 µg/mL (≈ 13.5 µM)
- MIC (Enterococcus faecium [11]): 1.56 µg/mL (≈ 3.37 µM)

Compound: CC(=O)NC[C@H]1CN(c2ccc(N3CCOS3(=O)=O)c(F)c2)C(=O)O1
- MIC (Enterococcus [1]): 1.56 µg/mL (≈ 4.18 µM)
- MIC (Enterococcus [2]): 1.56 µg/mL (≈ 4.18 µM)
- MIC (Enterococcus [3]): 3.12 µg/mL (≈ 8.36 µM)
- MIC (Enterococcus [4]): 3.12 µg/mL (≈ 8.36 µM)
- MIC (Enterococcus [5]): 1.56 µg/mL (≈ 4.18 µM)
- MIC (Enterococcus [6]): 3.12 µg/mL (≈ 8.36 µM)
- MIC (Staphylococcus aureus [7]): 3.12 µg/mL (≈ 8.36 µM)
- MIC (Staphylococcus): 3.12 µg/mL (≈ 8.36 µM)
- MIC (Enterococcus faecalis): 1.56 µg/mL (≈ 4.18 µM)
- MIC (Enterococcus faecium [8]): 1.56 µg/mL (≈ 4.18 µM)
- MIC (Streptococcus pneumoniae): 1.56 µg/mL (≈ 4.18 µM)
- MIC (Streptococcus pyogenes): 0.78 µg/mL (≈ 2.09 µM)
- MIC (Streptococcus agalactiae): 0.39 µg/mL (≈ 1.04 µM)
- MIC (Haemophilus influenzae): 3.12 µg/mL (≈ 8.36 µM)
- MIC (Staphylococcus aureus [9]): 3.12 µg/mL (≈ 8.36 µM)
- MIC (Enterococcus faecium [10]): 1.56 µg/mL (≈ 4.18 µM)
- MIC (Enterococcus faecium [11]): 1.56 µg/mL (≈ 4.18 µM)

Compound: CC(=O)NC[C@H]1CN(c2ccc(N3CCN(C(=O)OC(C)(C)C)S3(=O)=O)c(F)c2)C(=O)O1
- MIC (Enterococcus [1]): 25 µg/mL (≈ 52.9 µM)
- MIC (Enterococcus [2]): 25 µg/mL (≈ 52.9 µM)
- MIC (Enterococcus [3]): 6.25 µg/mL (≈ 13.2 µM)
- MIC (Enterococcus [4]): 6.25 µg/mL (≈ 13.2 µM)
- MIC (Enterococcus [5]): 12.5 µg/mL (≈ 26.5 µM)
- MIC (Enterococcus [6]): 12.5 µg/mL (≈ 26.5 µM)
- MIC (Staphylococcus aureus [7]): 12.5 µg/mL (≈ 26.5 µM)
- MIC (Staphylococcus): 12.5 µg/mL (≈ 26.5 µM)
- MIC (Enterococcus faecalis): 12.5 µg/mL (≈ 26.5 µM)
- MIC (Enterococcus faecium [8]): 25 µg/mL (≈ 52.9 µM)
- MIC (Streptococcus pneumoniae): 25 µg/mL (≈ 52.9 µM)
- MIC (Streptococcus pyogenes): 6.25 µg/mL (≈ 13.2 µM)
- MIC (Streptococcus agalactiae): 6.25 µg/mL (≈ 13.2 µM)
- MIC (Haemophilus influenzae): 6.25 µg/mL (≈ 13.2 µM)
- MIC (Staphylococcus aureus [9]): 12.5 µg/mL (≈ 26.5 µM)
- MIC (Enterococcus faecium [10]): 12.5 µg/mL (≈ 26.5 µM)
- MIC (Enterococcus faecium [11]): 12.5 µg/mL (≈ 26.5 µM)

Compound: CC(=O)NC[C@H]1CN(c2ccc(N3CCNS3(=O)=O)c(F)c2)C(=O)O1
- MIC (Enterococcus [1]): 0.78 µg/mL (≈ 2.09 µM)
- MIC (Enterococcus [2]): 0.39 µg/mL (≈ 1.05 µM)
- MIC (Enterococcus [3]): 0.78 µg/mL (≈ 2.09 µM)
- MIC (Enterococcus [4]): 0.78 µg/mL (≈ 2.09 µM)
- MIC (Enterococcus [5]): 0.39 µg/mL (≈ 1.05 µM)
- MIC (Enterococcus [6]): 0.78 µg/mL (≈ 2.09 µM)
- MIC (Staphylococcus aureus [7]): 0.39 µg/mL (≈ 1.05 µM)
- MIC (Staphylococcus): 0.2 µg/mL (≈ 0.537 µM)
- MIC (Enterococcus faecalis): 0.2 µg/mL (≈ 0.537 µM)
- MIC (Enterococcus faecium [8]): 0.39 µg/mL (≈ 1.05 µM)
- MIC (Streptococcus pneumoniae): 0.2 µg/mL (≈ 0.537 µM)
- MIC (Streptococcus pyogenes): 0.2 µg/mL (≈ 0.537 µM)
- MIC (Streptococcus agalactiae): 0.2 µg/mL (≈ 0.537 µM)
- MIC (Haemophilus influenzae): 0.2 µg/mL (≈ 0.537 µM)
- MIC (Staphylococcus aureus [9]): 0.2 µg/mL (≈ 0.537 µM)
- MIC (Enterococcus faecium [10]): 0.2 µg/mL (≈ 0.537 µM)
- MIC (Enterococcus faecium [11]): 0.2 µg/mL (≈ 0.537 µM)

Compound: CCN1CCN(c2ccc(N3C[C@H](CNC(C)=O)OC3=O)cc2F)S1(=O)=O
- MIC (Enterococcus [1]): 3.12 µg/mL (≈ 7.79 µM)
- MIC (Enterococcus [2]): 6.25 µg/mL (≈ 15.6 µM)
- MIC (Enterococcus [3]): 3.12 µg/mL (≈ 7.79 µM)
- MIC (Enterococcus [4]): 3.12 µg/mL (≈ 7.79 µM)
- MIC (Enterococcus [5]): 6.25 µg/mL (≈ 15.6 µM)
- MIC (Enterococcus [6]): 3.12 µg/mL (≈ 7.79 µM)
- MIC (Staphylococcus aureus [7]): 6.25 µg/mL (≈ 15.6 µM)
- MIC (Staphylococcus): 6.25 µg/mL (≈ 15.6 µM)
- MIC (Enterococcus faecalis): 3.12 µg/mL (≈ 7.79 µM)
- MIC (Enterococcus faecium [8]): 1.56 µg/mL (≈ 3.9 µM)
- MIC (Streptococcus pneumoniae): 0.78 µg/mL (≈ 1.95 µM)
- MIC (Streptococcus pyogenes): 0.78 µg/mL (≈ 1.95 µM)
- MIC (Streptococcus agalactiae): 3.12 µg/mL (≈ 7.79 µM)
- MIC (Haemophilus influenzae): 3.12 µg/mL (≈ 7.79 µM)
- MIC (Staphylococcus aureus [9]): 6.25 µg/mL (≈ 15.6 µM)
- MIC (Enterococcus faecium [10]): 6.25 µg/mL (≈ 15.6 µM)
- MIC (Enterococcus faecium [11]): 3.12 µg/mL (≈ 7.79 µM)

Compound: CC(=O)NC[C@H]1CN(c2ccc(N3CCOCC3)c(F)c2)C(=O)O1 [LINEZOLID]
- MIC (Enterococcus [1]): 0.78 µg/mL (≈ 2.31 µM)
- MIC (Enterococcus [2]): 1.56 µg/mL (≈ 4.62 µM)
- MIC (Enterococcus [3]): 1.56 µg/mL (≈ 4.62 µM)
- MIC (Enterococcus [4]): 1.56 µg/mL (≈ 4.62 µM)
- MIC (Enterococcus [5]): 1.56 µg/mL (≈ 4.62 µM)
- MIC (Enterococcus [6]): 1.56 µg/mL (≈ 4.62 µM)
- MIC (Staphylococcus aureus [7]): 1.56 µg/mL (≈ 4.62 µM)
- MIC (Staphylococcus): 1.56 µg/mL (≈ 4.62 µM)
- MIC (Enterococcus faecalis): 1.56 µg/mL (≈ 4.62 µM)
- MIC (Enterococcus faecium [8]): 1.56 µg/mL (≈ 4.62 µM)
- MIC (Streptococcus pneumoniae): 0.39 µg/mL (≈ 1.16 µM)
- MIC (Streptococcus pyogenes): 0.39 µg/mL (≈ 1.16 µM)
- MIC (Streptococcus agalactiae): 1.56 µg/mL (≈ 4.62 µM)
- MIC (Haemophilus influenzae): 1.56 µg/mL (≈ 4.62 µM)
- MIC (Staphylococcus aureus [9]): 3.12 µg/mL (≈ 9.25 µM)
- MIC (Enterococcus faecium [10]): 1.56 µg/mL (≈ 4.62 µM)
- MIC (Enterococcus faecium [11]): 0.78 µg/mL (≈ 2.31 µM)
